Results as given in patent publication US20240270801A1, “EPITOPE PEPTIDE OF HUMAN ALPHA-SYNUCLEIN AND PHARMACEUTICAL COMPOSITION INCLUDING SAID PEPTIDE” (Sumitomo Pharma Co., Ltd., priority 2021, published 2024).
Non-standard residues stand in square brackets, D forms with d. No end group written: not given here. Ahx = NCCCCCC(=O)O

Experiments:
aggregated human αSyn [1] = experiment: Antibody-inducing ability in mice: ELISA antibody titer of immune serum with respect to aggregated human αSyn; type: in vivo, mouse; settings: for Antibody titer with respect to aggregated human αSyn (N = 4 − 6, mean ± standard deviation): Example 2, serum 2 weeks after second administration; for Antibody titer with respect to aggregated human αSyn, relative to control: mice
Experimental: (§1) Using the various AJ peptide-human αSyn peptide conjugates produced in Example 1, an antibody-inducing ability with respect to human αSyn in mice was evaluated. The various AJ-human αSyn peptide conjugates (250 μg/mouse) or KLH-DMPVDPDN (25 μg/mouse) in physiological saline were intramuscularly administered to balb/c mice (females, 6 weeks old, CLEA Japan, Inc.) twice at a 2-week interval for immunization using aluminum hydroxide (Alum) (InvivoGen, 50 μg/mouse) as an adjuvant. As a negative control, physiological saline (100 μL/mouse) comprising the same amount of aluminum hydroxide was administered twice. Two weeks after the second administration, serum was recovered to evaluate the antibody titer with respect to human αSyn by ELISA.
(§2) ELISA was performed by the following method. 96-well plates were coated with human αSyn (Sigma) at 0.2 μg/well. After washing with PBST (Phosphate Buffered Saline comprising 0.05% Tween) once, blocking was performed with 3% skim milk (FUJIFILM Wako Pure Chemical Corporation). After washing with PBST three times, diluted serum was added to cause a reaction at room temperature for 1 hour. Furthermore, after washing with PBST three times, Goat anti-mouse IgG-HRP (abcam) was added to cause a reaction at room temperature for 1 hour. After washing with PBST three times, SureBlue TMB Microwell Peroxidase Substrate (KPL) was added to cause a reaction at room temperature for 10 minutes while light shielding. An equal volume of a TMB Stop Solution (KPL) was added to stop the reaction, and the absorbance at 450 nm was measured. ELISA with respect to aggregated human αSyn was performed by coating with the aggregated human αSyn (Stress Marq) at 15 ng/well instead of human αSyn in the above-mentioned method.
The antibody-inducing ability of the AJ-human αSyn peptide conjugates (AJ-p54, AJ-p54-KLH, and AJ-DMPVDPDN) produced in Example 1 with respect to human αSyn and aggregated human αSyn in mice was evaluated. Physiological saline or the AJ-human αSyn peptide conjugate (250 μg/mouse) was intramuscularly administered to balb/c mice (females, 6 weeks old, CLEA Japan, Inc.) twice at a 2-week interval using Alum (InvivoGen, 50 μg/mouse) as an adjuvant. Furthermore, KLH-DMPVDPDN (25 μg/mouse) was administered using Alum (InvivoGen, 50 μg/mouse) as an adjuvant. Two weeks after the second administration, serum was recovered to evaluate the antibody titer by ELISA. ELISA was performed by the method described in Example 2.
The antibody-inducing ability of the produced various human αSyn peptide conjugates with respect to human αSyn and aggregated human αSyn in the mice was evaluated by the method described in Example 2 using the antibody titers with respect to human αSyn and aggregated human αSyn of the mouse immune serum. […] In Table 6, the antibody titer of AJ-p242, AJ-p244, AJ-p347, or AJ-p361 is shown with the antibody titer of AJ-p150 as a control being 1 (logarithm). In addition, the antibody titers of AJ-p229, AJ-p237, and AJ-p298 are shown with the antibody titer of AJ-p54 as a control being 1 (logarithm).
The antibody-inducing ability of the AJ-human αSyn peptide conjugates with a modified linker with respect to human αSyn and aggregated human αSyn in the mice was evaluated using the antibody titers with respect to human αSyn and aggregated human αSyn of the mouse immune serum. […] In Table 8, the antibody titers of the AJ-human αSyn peptide conjugates with various modified linkers comprising p54 are shown with the antibody titer of AJ-p54 as a control being 1 (logarithm). In addition, the antibody titers of the AJ-human αSyn peptide conjugates with various modified linkers comprising p150 are shown with the antibody titer of AJ-p150 as a control being 1 (logarithm).

aggregated human αSyn [2] = target: aggregated human αSyn (Homo sapiens, UniProt P37840); experiment: Aggregated human αSyn-neutralizing effect of antibody induced in mice: phosphorylation of human αSyn in SH-SY5Y cells; type: cell-based; parameters: purchased Stress Marq (StressMarq Biosciences Inc.); settings: antibody (100 μg/mL) induced in C57BL/6 mice by the vaccine; FIG. 1B, isotype control = 100
Experimental: The aggregated human αSyn-neutralizing effect of the antibody induced in the mice by the AJ-human αSyn peptide conjugate (AJ-p54) produced in Example 1 was evaluated. Physiological saline or the AJ-human αSyn peptide conjugate (250 μg/mouse) was intramuscularly administered to C57BL/6 mice (males, 6 weeks old, CLEA Japan, Inc.) four times at a 2-week interval using CFA (DIFCO) as an adjuvant. Furthermore, KLH-DMPVDPDN (25 μg/mouse) was administered using Alum (InvivoGen, 50 μg/mouse) as an adjuvant. Two weeks after the fourth administration, serum was recovered. After recovering the antibodies comprised in the serum by Protein G HP SpinTrap (Cytiva), the human αSyn- and aggregated human αSyn-neutralizing effect was evaluated by a method described below.
As the human αSyn- and aggregated human αSyn-neutralizing effect, the influence on phosphorylation of human αSyn in SH-SY5Y cells (ATCC) was evaluated. The SH-SY5Y cells were seeded in a 96-well plate at 2×10^4 cells/well and cultured under the conditions of 37° C. and 5% CO2. […] After fixing the cells with a 4% paraformaldehyde/phosphate buffer solution (FUJIFILM Wako Pure Chemical Corporation), phosphorylated human αSyn was stained with a fluorescence-labeled anti-phosphorylated αSyn antibody (Cell Signaling). The amount of phosphorylated human αSyn was evaluated by image analysis using ArrayScan (Thermo Fisher Scientific Inc.). […]

human αSyn = experiment: Antibody-inducing ability in mice: ELISA antibody titer of immune serum with respect to human αSyn; type: in vivo, mouse; parameters: key to Antibody titer with respect to human αSyn, relative to control: log titer relative to control conjugate (control = 1); settings: for Antibody titer with respect to human αSyn (N = 4 − 6, mean ± standard deviation): Example 2, serum 2 weeks after second administration
Experimental: as §1
as §2, with “above-mentioned method. […]” for “above-mentioned method.”
The antibody-inducing ability of the produced various human αSyn peptide conjugates with respect to human αSyn and aggregated human αSyn in the mice was evaluated by the method described in Example 2 using the antibody titers with respect to human αSyn and aggregated human αSyn of the mouse immune serum. […] In Table 6, the antibody titer of AJ-p242, AJ-p244, AJ-p347, or AJ-p361 is shown with the antibody titer of AJ-p150 as a control being 1 (logarithm). In addition, the antibody titers of AJ-p229, AJ-p237, and AJ-p298 are shown with the antibody titer of AJ-p54 as a control being 1 (logarithm). […]

aggregated human αSyn [3] = experiment: Antibody-inducing ability in cynomolgus monkeys: ELISA antibody titer with respect to aggregated human αSyn; type: in vivo; settings: i.m. three times at 2-week interval, Alum; AJ conjugates 2,000 μg/monkey, KLH-DMPVDPDN 75 μg/monkey; FIG. 4B
Experimental: The antibody-inducing ability of the AJ-human αSyn peptide conjugate with respect to human αSyn and aggregated human αSyn in cynomolgus monkeys was evaluated. The AJ-human αSyn peptide conjugates (AJ-p54, AJ-p150, AJ-p283, AJ-p142, and AJ-p273) (2,000 μg/monkey) and KLH-DMPVDPDN (75 μg/monkey) were intramuscularly administered to cynomolgus monkeys (males, 3 to 7 years old, SNBL, Ltd.) three times at a 2-week interval using Alum (InvivoGen, 200 μg/monkey) as an adjuvant. Blood was collected before administration and 4, 6, 8, and 10 weeks after the first administration to recover the serum. ELISA was performed by the following method.
96-well plates were coated with human αSyn (Sigma-Aldrich) or aggregated human αSyn (StressMarq Biosciences Inc.) at 0.2 μg/well or 15 ng/well. After washing with PBST once, blocking was performed with 3% skim milk (FUJIFILM Wako Pure Chemical Corporation). After washing with PBST three times, diluted serum was added to cause a reaction at room temperature for 1 hour. Furthermore, after washing with PBST three times, Goat anti-Monkey IgG-HRP (Bio-Rad Laboratories, Inc.) was added to cause a reaction at room temperature for 1 hour. […] An equal volume of a TMB Stop Solution (KPL) was added to stop the reaction, and the absorbance at 450 nm was measured.

[4] = balb/c mice, i.m. twice at 2-week interval, Alum, AJ conjugates 250 μg/mouse, KLH-DMPVDPDN 25 μg/mouse
[5] = Example 4, balb/c mice, i.m. twice at 2-week interval, Alum, AJ conjugates 250 μg/mouse, KLH-DMPVDPDN 25 μg/mouse

Sequence	Antibody titer with respect to aggregated human αSyn (N = 4 − 6, mean ± standard deviation) (aggregated human αSyn [1]; [4])	Induction of the antibody to aggregated human αSyn (in words) (aggregated human αSyn [1]; Example 4, balb/c mice)	Antibody titer with respect to aggregated human αSyn (mean ± standard deviation) (aggregated human αSyn [1]; [5])	Antibody titer with respect to aggregated human αSyn, relative to control (aggregated human αSyn [1]; Example 9, N = 4, titer of AJ-p150 or AJ-p54 as control being 1 (logarithm))	Antibody titer with respect to aggregated human αSyn, relative to control (aggregated human αSyn [1]; Example 10, modified linker, titer of AJ-p54 or AJ-p150 as control being 1 (logarithm))	Phosphorylation of human αSyn in SH-SY5Y cells to which aggregated human αSyn was added (aggregated human αSyn [2])	Antibody titer with respect to human αSyn (N = 4 − 6, mean ± standard deviation) (human αSyn; [4])	Induction of the antibody to human αSyn (in words) (human αSyn; Example 3, mice)	Antibody titer (N = 4 − 6, mean ± standard deviation) with respect to human αSyn (human αSyn; Example 3, mice, same manner as Example 2)	Induction of the antibody to human αSyn (in words) (human αSyn; Example 4, balb/c mice)	Antibody titer with respect to human αSyn (mean ± standard deviation) (human αSyn; [5])	Antibody titer with respect to human αSyn, relative to control (human αSyn; Example 9, mice, N = 4, titer of AJ-p150 or AJ-p54 as control being 1 (logarithm))	Antibody titer with respect to human αSyn, relative to control (human αSyn; Example 10, modified linker, mice, titer of AJ-p54 or AJ-p150 as control being 1 (logarithm))	Induction of the antibody to aggregated human αSyn in cynomolgus monkeys (aggregated human αSyn [3])
ELKLIFLHRLKRLRKRLKRKXKKDQLGKNE (ELKLIFLHRLKRLRKRLKRK[Ahx]KKDQLGKNE) [AJ-p54, AJ peptide linked to p54 via ε-Acp (X)]	768 ± 862	induced	768 ± 296	1	1	inhibited	4096 ± 2896	induced to the same extent	1434 ± 1510	induced	1434 ± 1510	1	1	–
ELKLIFLHRLKRLRKRLKRKXKKTQLGKND (ELKLIFLHRLKRLRKRLKRK[Ahx]KKTQLGKND) [AJ-p273]	704 ± 896	–	–	–	–	–	3328 ± 3278	–	–	–	–	–	–	not induced
